The results in this text go back to US20080039508A1, “Treatment Of Tumours” (AQ+PLC, priority 2004, published 2008).

Each structure is given as a SMILES string.

Take `Oc1cccc2cccnc12` [8-hydroxyquinoline]: the “solubility in aqueous solution” value is “generally insoluble or only poorly soluble”.
